# ChEMBL document CHEMBL4483862, “Open-source discovery of chemical leads for next-generation chemoprotective antimalarials” (2018)
# Test system: Plasmodium berghei
# Experiment: Luciferase/luciferin-expressing antifolate-resistant parasites were used to infect a culture of HepG2 cells that were pre-incubated with compounds. Infected hepatocytes emit light due to the luciferase reaction. Assay results are presented as the percent inhibition of light emission compared to control. […]
# Type: functional
# Details: sporozoite; for IC90: read-out: LUCIFERASE INFECTION ASSAY - IC90
# [1] = read-out: LUCIFERASE INFECTION ASSAY - IC50
SMILES,IC50 [1],IC90,other results
Cc1ccc(S(=O)(=O)CCC(=O)OCC(=O)NCC2CCCO2)cc1 (centres undefined),> 10 µM,> 10 µM,–
COc1ccc(C(C)=O)cc1COc1cccc(C(=O)NCc2ccccc2)c1,–,9.35 µM,"IC50 (HEPG2TOX_HILL_SLOPE 15.6, HEPG2TOX_R_SQUARED 0.727, PBLUC_HILL_SLOPE 15.6, PBLUC_R_SQUARED 0.0647, read-out: LUCIFERASE INFECTION ASSAY - IC50): 8.12 µM"
O=C(/C=C/c1cccs1)N1CCN(S(=O)(=O)c2ccc(Cl)c(C(F)(F)F)c2)CC1,–,> 10 µM,"IC50 (PBLUC_HILL_SLOPE 2.7, PBLUC_R_SQUARED 0.367, read-out: LUCIFERASE INFECTION ASSAY - IC50): 5.47 µM"
Cn1c(NCC2CCCO2)nc2cnc(-c3cccc(Oc4ccccc4)c3)cc21 (centres undefined),> 10 µM,> 10 µM,–
Cc1[nH]c2ccccc2c1C(=O)C(C)Sc1ccc2c(c1)OCCCO2 (centres undefined),–,> 10 µM,"IC50 (PBLUC_HILL_SLOPE 1.73, PBLUC_R_SQUARED 0.284, read-out: LUCIFERASE INFECTION ASSAY - IC50): 3.18 µM"
O=C(Nc1nc2c(s1)CCc1ccccc1-2)c1cccc(-n2cnnn2)c1,> 10 µM,> 10 µM,–
Cc1nc2c3ccccc3nc(SCC(=O)Nc3ccccc3)n2n1,–,1.43 µM,"IC50 (HEPG2TOX_HILL_SLOPE 1.21, HEPG2TOX_R_SQUARED 0.956, PBLUC_HILL_SLOPE 1.03, PBLUC_R_SQUARED 0.933, read-out: LUCIFERASE INFECTION ASSAY - IC50): 0.169 µM"
Cc1c(O)ccc2c(CNc3ccc(C(C)(C)C)cc3)cc(=O)oc12,–,> 10 µM,"IC50 (HEPG2TOX_HILL_SLOPE 0.191, HEPG2TOX_R_SQUARED 0.186, PBLUC_HILL_SLOPE 2.86, PBLUC_R_SQUARED 0.292, read-out: LUCIFERASE INFECTION ASSAY - IC50): 4.84 µM"
Cc1ccccc1-c1ccc(CN2CCc3c(c(C(=O)NCc4ccccc4)nn3CCO)C2)cc1,–,2.98 µM,"IC50 (PBLUC_HILL_SLOPE 9.2, PBLUC_R_SQUARED 0.549, read-out: LUCIFERASE INFECTION ASSAY - IC50): 2.35 µM"
CN(C)S(=O)(=O)c1ccc2nnn(OCCCOc3ccc(C(C)(C)C)cc3)c2c1,> 10 µM,> 10 µM,–
CCOc1ncccc1C(=O)Nc1cc(S(=O)(=O)N2CCOCC2)ccc1Oc1ccccc1,–,> 10 µM,"IC50 (FFLUC_HILL_SLOPE 2.19, FFLUC_R_SQUARED 0.739, read-out: LUCIFERASE INFECTION ASSAY - IC50): > 10 µM"
CC1=NN(c2ccccc2)C(=O)/C1=C\c1c(C)nn(-c2ccccc2)c1Sc1nc2ccccc2s1,–,> 10 µM,"IC50 (PBLUC_HILL_SLOPE 3.11, PBLUC_R_SQUARED 0.577, read-out: LUCIFERASE INFECTION ASSAY - IC50): 6.6 µM"
CC(C)(C)c1nc2ccc(NC(=O)c3ccc(Cl)c(S(=O)(=O)NC4CC4)c3)cc2[nH]1,–,> 10 µM,"IC50 (HEPG2TOX_HILL_SLOPE 8.98, HEPG2TOX_R_SQUARED 0.824, PBLUC_HILL_SLOPE 3.11, PBLUC_R_SQUARED 0.121, read-out: LUCIFERASE INFECTION ASSAY - IC50): 7.36 µM"
CC(C)c1ccc(NC(=O)Nc2ccc3nc(-c4ccco4)nn3c2)cc1,> 10 µM,> 10 µM,–
O=C(CN1CCC(C(=O)Nc2ccccc2O)CC1)Nc1nc(-c2cccc([N+](=O)[O-])c2)cs1,–,> 10 µM,"IC50 (PBLUC_HILL_SLOPE 3.03, PBLUC_R_SQUARED 0.0575, read-out: LUCIFERASE INFECTION ASSAY - IC50): 6.47 µM"
CCN1C/C(=C/c2ccc(OC)c(O)c2)C(=O)/C(=C/c2ccc(OC)c(O)c2)C1,–,4.05 µM,"IC50 (HEPG2TOX_HILL_SLOPE 4, HEPG2TOX_R_SQUARED 0.984, PBLUC_HILL_SLOPE 15.6, PBLUC_R_SQUARED 0.475, read-out: LUCIFERASE INFECTION ASSAY - IC50): 3.52 µM"
CC1CCCC(NC(=O)CSc2nnc(O)n2Cc2ccccc2)C1C (centres undefined),> 10 µM,> 10 µM,–
O=C(c1cccc(Cl)c1)c1cnc(Nc2cccc(C(F)(F)F)c2)[nH]1,5.49 µM,> 9.02 µM,–
CN(c1ccccc1)c1cc(C(=O)Nc2ccccc2)ncn1,–,0.681 µM,"IC50 (FFLUC_HILL_SLOPE 2.25, FFLUC_R_SQUARED 0.879, PBLUC_HILL_SLOPE 0.724, PBLUC_R_SQUARED 0.686, read-out: LUCIFERASE INFECTION ASSAY - IC50): 0.0327 µM"
Cc1ccc(-c2c(C)nn3c(=O)cc(C)[nH]c23)cc1,–,12.5 µM,"IC50 (HEPG2TOX_HILL_SLOPE 4.15, HEPG2TOX_R_SQUARED 0.53, PBLUC_HILL_SLOPE 4.03, PBLUC_R_SQUARED 0.493, read-out: LUCIFERASE INFECTION ASSAY - IC50): 7.24 µM"
O=C(Cn1ncc(Cl)c(Cl)c1=O)N(Cc1cccs1)c1ccc2c(c1)OCCO2,–,> 10 µM,"IC50 (PBLUC_HILL_SLOPE 8.55, 0.379, PBLUC_R_SQUARED 0.113, 0.341, read-out: LUCIFERASE INFECTION ASSAY - IC50): 6.34 µM"
O=C1c2cc(Br)ccc2S(=O)(=O)N1CC(c1ccco1)N1CCCC1 (centres undefined),> 10 µM,> 10 µM,–
